# Laboratory results: ChEMBL document CHEMBL1201862, “PubChem BioAssay data set” (2004)
#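 Five concentrations, 48 hours, 96-well plates. GI50 is the concentration that inhibits growth by half.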 Activity calls are given as the source filed them. No stated cut-off is given here; in the data, active = GI50 up to about 1.1 µM and inactive = higher.
# How the values were obtained:
# Experiment in all cases: NCI anticancer screen, dose series, 48 h
# OVCAR-3 = system: OVCAR-3
# Malme-3M = system: Malme-3M
# SF-539 = system: SF-539
# MOLT-4 = system: MOLT-4
# U-251 = system: U-251
# NCI-H460 = system: NCI-H460
# M14 = system: M14
# TK-10 = system: TK-10
# PC-3 = system: PC-3
# OVCAR-8 = system: OVCAR-8
# NCI-H226 = system: NCI-H226
# IGROV-1 = system: IGROV-1
# HT-29 = system: HT-29
# MDA-MB-231 = system: MDA-MB-231
# COLO 205 = system: COLO 205
# 786-0 = system: 786-0
# UO-31 = system: UO-31
# A549 = system: A549
# K562 = system: K562
# HOP-92 = system: HOP-92
# SW-620 = system: SW-620
# NCI-H522 = system: NCI-H522
# SF-295 = system: SF-295
# SK-MEL-2 = system: SK-MEL-2
# MCF7 = system: MCF7
# ACHN = system: ACHN
# RXF 393 = system: RXF 393
# CCRF-CEM = system: CCRF-CEM
# RPMI-8226 = system: RPMI-8226
# A498 = system: A498
# SR = system: SR
# UACC-257 = system: UACC-257
# UACC-62 = system: UACC-62
# HCT-15 = system: HCT-15
# LOX IMVI = system: LOX IMVI
# T47D = system: T47D
# EKVX = system: EKVX
# Hs-578T = system: Hs-578T
# OVCAR-4 = system: OVCAR-4
# HL-60 = system: HL-60
# OVCAR-5 = system: OVCAR-5
# MDA-MB-435 = system: MDA-MB-435
# SN12C = system: SN12C
# SF-268 = system: SF-268
# DU-145 = system: DU-145
# SK-MEL-5 = system: SK-MEL-5
# CAKI-1 = system: CAKI-1
# SNB-19 = system: SNB-19
# NCI-H23 = system: NCI-H23
# NCI/ADR-RES = system: NCI/ADR-RES
# SNB-75 = system: SNB-75
# SK-OV-3 = system: SK-OV-3
# BT-549 = system: BT-549
# HCC 2998 = system: HCC 2998
# HOP-62 = system: HOP-62
# SK-MEL-28 = system: SK-MEL-28
# HCT-116 = system: HCT-116
# KM12 = system: KM12
# MDA-N = system: MDA-N
smiles,measurement,setting,value
OC1(c2ccccc2)CC2CCC(C1)N2CCCC(O)(c1ccccc1)c1ccccc1 (stereo not drawn),GI50,OVCAR-3,16.4 µM (inactive)
same,GI50,Malme-3M,15.9 µM (inactive)
same,GI50,SF-539,4.54 µM (inactive)
same,GI50,MOLT-4,7.45 µM (inactive)
same,GI50,U-251,15.1 µM (inactive)
same,GI50,NCI-H460,2.2 µM (inactive)
same,GI50,M14,16.4 µM (inactive)
same,GI50,TK-10,12.7 µM (inactive)
same,GI50,PC-3,3.44 µM (inactive)
same,GI50,OVCAR-8,19.2 µM (inactive)
same,GI50,NCI-H226,12.4 µM (inactive)
same,GI50,IGROV-1,7.98 µM (inactive)
same,GI50,HT-29,2.78 µM (inactive)
same,GI50,MDA-MB-231,18.9 µM (inactive)
same,GI50,COLO 205,10.5 µM (inactive)
same,GI50,786-0,12.5 µM (inactive)
same,GI50,UO-31,7.55 µM (inactive)
same,GI50,A549,17.1 µM (inactive)
same,GI50,K562,4.99 µM (inactive)
same,GI50,HOP-92,5.62 µM (inactive)
same,GI50,SW-620,7.33 µM (inactive)
same,GI50,NCI-H522,10.2 µM (inactive)
same,GI50,SF-295,3.33 µM (inactive)
same,GI50,SK-MEL-2,20.3 µM (inactive)
same,GI50,MCF7,16.1 µM (inactive)
same,GI50,ACHN,17.2 µM (inactive)
same,GI50,RXF 393,11.9 µM (inactive)
same,GI50,CCRF-CEM,4.33 µM (inactive)
same,GI50,RPMI-8226,2.28 µM (inactive)
same,GI50,A498,15.5 µM (inactive)
same,GI50,SR,11.8 µM (inactive)
same,GI50,UACC-257,2 µM (inactive)
same,GI50,UACC-62,14.3 µM (inactive)
same,GI50,HCT-15,14.2 µM
same,GI50,LOX IMVI,10.6 µM (inactive)
same,GI50,T47D,21.3 µM (inactive)
same,GI50,EKVX,16.5 µM (inactive)
same,GI50,Hs-578T,4.83 µM (inactive)
same,GI50,OVCAR-4,33.8 µM (inactive)
same,GI50,HL-60,22.9 µM (inactive)
same,GI50,OVCAR-5,25.8 µM (inactive)
same,GI50,MDA-MB-435,12 µM (inactive)
same,GI50,SN12C,16.7 µM (inactive)
same,GI50,SF-268,13.4 µM (inactive)
same,GI50,DU-145,21.4 µM (inactive)
same,GI50,SK-MEL-5,3.2 µM (inactive)
same,GI50,CAKI-1,14 µM (inactive)
same,GI50,SNB-19,20.7 µM (inactive)
same,GI50,NCI-H23,11.9 µM (inactive)
same,GI50,NCI/ADR-RES,17.7 µM (inactive)
same,GI50,SNB-75,11.2 µM (inactive)
same,GI50,SK-OV-3,13.8 µM (inactive)
same,GI50,BT-549,13 µM (inactive)
same,GI50,HCC 2998,2.14 µM (inactive)
same,GI50,HOP-62,15.5 µM (inactive)
same,GI50,SK-MEL-28,17.7 µM (inactive)
same,GI50,HCT-116,14.6 µM (inactive)
same,GI50,KM12,15.3 µM (inactive)
CC(C)=CC(C)C(C(O)CCC1(c2ccoc2)OCCO1)S(=O)(=O)c1ccccc1 (stereo not drawn),GI50,OVCAR-3,> 100 µM (inactive)
same,GI50,Malme-3M,> 100 µM (inactive)
same,GI50,SF-539,> 100 µM (inactive)
same,GI50,U-251,> 100 µM (inactive)
same,GI50,NCI-H460,> 100 µM (inactive)
same,GI50,M14,> 100 µM (inactive)
same,GI50,TK-10,> 100 µM (inactive)
same,GI50,PC-3,> 100 µM (inactive)
same,GI50,OVCAR-8,> 100 µM (inactive)
same,GI50,NCI-H226,> 100 µM (inactive)
same,GI50,MDA-N,> 100 µM (inactive)
same,GI50,IGROV-1,54.5 µM (inactive)
same,GI50,MDA-MB-231,> 100 µM (inactive)
same,GI50,COLO 205,> 100 µM (inactive)
same,GI50,786-0,> 100 µM (inactive)
same,GI50,UO-31,> 100 µM (inactive)
same,GI50,A549,> 100 µM (inactive)
same,GI50,SW-620,> 100 µM (inactive)
same,GI50,NCI-H522,> 100 µM (inactive)
same,GI50,SF-295,> 100 µM (inactive)
same,GI50,SK-MEL-2,> 100 µM (inactive)
same,GI50,MCF7,> 100 µM (inactive)
same,GI50,ACHN,> 100 µM (inactive)
same,GI50,RXF 393,> 100 µM (inactive)
same,GI50,CCRF-CEM,> 100 µM (inactive)
same,GI50,RPMI-8226,> 100 µM (inactive)
same,GI50,A498,> 100 µM (inactive)
same,GI50,UACC-257,> 100 µM (inactive)
same,GI50,HCT-15,> 100 µM
same,GI50,LOX IMVI,> 100 µM (inactive)
same,GI50,T47D,> 100 µM (inactive)
same,GI50,EKVX,> 100 µM (inactive)
same,GI50,OVCAR-4,> 100 µM (inactive)
same,GI50,OVCAR-5,> 100 µM (inactive)
same,GI50,MDA-MB-435,> 100 µM (inactive)
same,GI50,SN12C,> 100 µM (inactive)
same,GI50,SF-268,> 100 µM (inactive)
same,GI50,SK-MEL-5,> 100 µM (inactive)
same,GI50,CAKI-1,> 100 µM (inactive)
same,GI50,SNB-19,> 100 µM (inactive)
same,GI50,NCI-H23,> 100 µM (inactive)
same,GI50,NCI/ADR-RES,91.6 µM (inactive)
same,GI50,SNB-75,> 100 µM (inactive)
same,GI50,SK-OV-3,> 100 µM (inactive)
same,GI50,BT-549,> 100 µM (inactive)
same,GI50,HCC 2998,> 100 µM (inactive)
same,GI50,HOP-62,> 100 µM (inactive)
same,GI50,SK-MEL-28,> 100 µM (inactive)
same,GI50,HCT-116,> 100 µM (inactive)
same,GI50,KM12,> 100 µM (inactive)
